Values after ≈ are worked out from the molar mass of the structure shown.

This data set can be described thus: Solubilization of Nile Red in water aided by the semi-solid polymer. Type of data set: physicochemical. As for the experimental part:
Nile Red (NR) is a hydrophobic molecule that is insoluble in water. 3 mg of NR solid particles suspended in 1 mL of aqueous phosphate buffered saline (PBS) without dissolving. With addition of 10% semi-solid polymer (100 mg), NR is completely solubilized in PBS to 3 mg/mL.

Compound `CCN(CC)c1ccc2nc3c4ccccc4c(=O)cc-3oc2c1` [Nile Red] returned a solubility (PBS with 10% semi-solid polymer, aqueous with cosolvent or surfactant or cyclodextrin, thermodynamic from solid, with addition of 10% semi-solid polymer (100 mg in 1 mL PBS)) of 3000 µg/mL (≈ 9.42 mM). The Solubility in water entry (without polymer) was “insoluble”.

These data come from patent US10226534B2, “Semi-solid delivery systems” (REGENTS OF THE UNIVERSITY OF MINNESOTA, priority 2013, dated 2019).
